Results: patent US10721967B2, “Vaporizing devices and methods for delivering a compound using the same” (Altria Client Services LLC, priority 2016, dated 2020)
Where two headings read alike, the source gives them in different places.

Legend:
[1] = Short Blessed Test cognitive status evaluation; type: in vivo, human; conditions: for SET 0 min (Short Blessed Test score): 0 min (prior to inhalation); for SET 0 min (Short Blessed Test score) / SET 30 min (Short Blessed Test score) / SET 120 min (Short Blessed Test score): mean; for SET 30 min (Short Blessed Test score): 30 min after inhalation
Description: (§1) Blood pressure, pulse rate, and oxygen saturation were also recorded at baseline, 30, 60, 90, and 120 minutes post inhalation. A cognitive test was conducted using the Short Blessed Test prior to the experiment at 30, 60 minutes after inhalation and at the end of the experiment.
(§2) The primary outcome of the study was to characterize the inter-individual variability of Δ^9-THC during the absorption phase. The secondary outcome included (a) monitoring adverse effects, (b) blood pressure, and heart rate; and (c) monitoring the response of single-ascending dose with the use of the study device. In addition, the influence of the use of the trial device on the cognitive status of the subject was assessed. A Short Blessed Test cognitive test^19 was used for the purpose of the trial.
The Short Blessed Test, a six-item test, was used as a diagnostic tool enabling the cognitive status evaluation of the volunteers. Each item was scored and total scores were calculated on the following cut off points: Normal or minimally impaired: 0-8, Moderately impaired: 9-19, Severely impaired: 20-33.

[2] = Blood pressure, pulse rate and oxygen saturation after inhalation; type: in vivo, human; conditions: for DBP (diastolic blood pressure) / HR (heart rate) / SBP (systolic blood pressure) / SO2 (blood oxygen saturation): mean value
Description: as §1, §2

[3] = Single-ascending dose pharmacokinetic study: plasma THC after a 3 second inhalation from the vaporizer device; type: in vivo, human; conditions: for AUC(0-inf) / Tmax / Cmax: human, plasma, inhaled, single inhalation, mean ± SD; for Cmax: read-out: Δ^9-THC Cmax
Description: A study was conducted to investigate the pharmacokinetics, efficacy, safety, and ease of use of a vaporizer device of the present technology for treating disorders in humans. Volunteers were recruited for participation in the study and met the following inclusion criteria: (a) age >30 and <70 years; (b) no known medical problems; and (c) if applicable, negative urine pregnancy test (β human […] gonadotropin pregnancy test). Exclusion criteria were the presence of (a) significant cardiac or pulmonary disease, (b) history of a psychotic or anxiety disorder, (c) pregnancy, pregnancy attempt or breastfeeding, (d) presence of a neuropathic or non-neuropathic pain disorder, (e) low systolic blood pressure, ([…]) (f) diabetes (g) first degree family history of psychotic or anxiety disorder, (h) history of drug addiction, (i) history of drug misuse, (j) concurrent use the following drugs: rifampicin, rifabutin, carbamazepine, or phenobarbital, primidone, (k) using the following plants: Hypericum perforatum, troglitazone, (l) alcohol consumption up to 12 hours prior to the study, (m) abnormal parameters such as heart rate above 100 BPM, blood pressure below 90 mm Hg (systolic), saturation below 91 percent, (n) recreational Cannabis use up to 72 hours before the study, (o) any chronic use of drugs, and (q) age less than 30 or more than 70.
The participants were divided into four dose related groups each group included 3 volunteers. After 3 successful training inhalations, each participant inhaled 3 seconds of a single dose. Dose groups were 10±0.1 mg, 15±0.1 mg, 20±0.1 mg, 25±0.1 mg of THC.
Blood samples were drawn immediately before and at 2, 3, 4, 10, 30 minutes after inhalation for monitoring of plasma levels of THC and its active metabolite Δ^9 Carboxy-THC. The blood was collected in 13×75 mm purple-top Vacutainer tubes containing EDTA. Samples were kept on ice and centrifuged within 30 minutes. Plasma samples were aliquoted into 3.6-mL polypropylene Nunc cryotubes (Thomas Scientific, NJ, USA), stored frozen at −20° C., and analyzed within 6 weeks. The cannabinoid analysis was performed at Pactox (Pacific Toxicology Laboratories) Labs by multidimensional gas chromatography mass spectrometry method.
The study device was as described above in connection with the figures and designed to vaporize up to 80 doses of processed cannabis fibs, resulting in the pulmonary delivery of compounds. The inhaler consisted of a multi-dose cartridge, indication light, and power switch. The cartridge was preloaded with multiple pre-weighed 10.0±0.1 mg, 15.0±0.1 mg, 20.0±0.1 mg, and 25.0±0.1 mg doses of processed cannabis flos. The vaporization process was segmental and triggered by the volunteer pressing the operating button. The segmental evaporation process is aimed at turning THCA into THC^1 and is done by: (1) stage I—heating the material to 100° C. for 9 seconds; (2) stage II—heating the material to 150° C. for 9 seconds; (3) stage III—heating the material to 190° C. to 200° C. (evaporation temperature) for the 3 seconds of inhalation. The transition to the next dose/inhalation is performed by using a mechanical rotation wheel. The device engages automatic thermal control that ensures a complete, high-efficiency delivery of carmabinoid vapors to the lungs. The device allowed for “single inhalation” dose resolution, instantaneous administration, and required no preprocessing or any subject intervention other than the inhalation itself.
The cannabis flowers used in the study were of the Alaska strain provided by “Tikun Olam.” This strain is a hybrid of 70% sativa and 30% indica strains. This strain consists of 20-22% THC and 0% CBD. The processed cannabis flowers used in this study were tested for THC by modified gas-chromatography method without derivatization 1.8 resulting in Δ^9-THC content of 20.08%. The flowers were loaded into the inhaler so as to retain the natural cannabis compounds in. their raw form. […]

[4] = intravenous THC administration, cited from earlier work
[5] = ascending doses 10-25 mg, inhalation

SMILES: CCCCCc1cc(O)c2c(c1)OC(C)(C)[C@@H]1CCC(C)=C[C@@H]21 [THC, tetrahydrocannabinol]
- SET 0 min (Short Blessed Test score) ([1]; 10 mg dose group): 0.66 ± 0.94
- SET 30 min (Short Blessed Test score) ([1]; 10 mg dose group): 2.33 ± 3.29
- SET 120 min (Short Blessed Test score) ([1]; 10 mg dose group): 2.66 ± 0.47
- SET 0 min (Short Blessed Test score) ([1]; 15 mg dose group): 0
- SET 30 min (Short Blessed Test score) ([1]; 15 mg dose group): 1.33 ± 1.88
- SET 120 min (Short Blessed Test score) ([1]; 15 mg dose group): 3 ± 0.81
- SET 0 min (Short Blessed Test score) ([1]; 20 mg dose group): 2 ± 1.63
- SET 30 min (Short Blessed Test score) ([1]; 20 mg dose group): 0.66 ± 0.94
- SET 120 min (Short Blessed Test score) ([1]; 20 mg dose group): 0.66 ± 0.94
- SET 0 min (Short Blessed Test score) ([1]; 25 mg dose group): 2 ± 2.82
- SET 30 min (Short Blessed Test score) ([1]; 25 mg dose group): 0
- SET 120 min (Short Blessed Test score) ([1]; 25 mg dose group): 0
- cognitive impairment (Short Blessed Test) ([1]; all volunteers, 0-8 normal or minimally impaired): minimal cognitive impairment
- DBP (diastolic blood pressure) ([2]; 10 mg dose group): 69.46 ± 7.86 mmHg
- HR (heart rate) ([2]; 10 mg dose group): 71.66 ± 10.14
- SBP (systolic blood pressure) ([2]; 10 mg dose group): 113.4 ± 10.23 mmHg
- SO2 (blood oxygen saturation) ([2]; 10 mg dose group): 99.93 ± 0.25%
- DBP (diastolic blood pressure) ([2]; 15 mg dose group): 63.85 ± 9.78 mmHg
- HR (heart rate) ([2]; 15 mg dose group): 79 ± 13.37
- SBP (systolic blood pressure) ([2]; 15 mg dose group): 114.93 ± 6.88 mmHg
- SO2 (blood oxygen saturation) ([2]; 15 mg dose group): 100%
- DBP (diastolic blood pressure) ([2]; 20 mg dose group): 71.78 ± 14.95 mmHg
- HR (heart rate) ([2]; 20 mg dose group): 68.35 ± 5.83
- SBP (systolic blood pressure) ([2]; 20 mg dose group): 120.14 ± 28.03 mmHg
- SO2 (blood oxygen saturation) ([2]; 20 mg dose group): 99.92 ± 0.26%
- DBP (diastolic blood pressure) ([2]; 25 mg dose group): 80.57 ± 8.92 mmHg
- HR (heart rate) ([2]; 25 mg dose group): 77.57 ± 17.74
- SBP (systolic blood pressure) ([2]; 25 mg dose group): 130 ± 16.62 mmHg
- SO2 (blood oxygen saturation) ([2]; 25 mg dose group): 99.42 ± 0.9%
- change in blood pressure, heart rate, or blood oxygen saturation ([2]; during the time frame of the study, all dose groups): no significant change
- change in time needed to reach maximum concentration with ascending doses [3, 5]: no significant change
- change of AUC with ascending doses [3, 5]: same linear increase
- change of maximum concentration with ascending doses [3, 5]: linear increase
- AUC(0-inf) ([3]; 0.1 mg, Group IV, 25 ± 0.1 mg): 16.2 ng·h/mL
- Tmax ([3]; 0.1 mg, Group IV, 25 ± 0.1 mg): 3 min
- Cmax ([3]; 0.1 mg, Group IV, 25 ± 0.1 mg): 88.6 ± 14.8 ng/mL
- AUC(0-inf) ([3]; Group I, 10 ± 0.1 mg): 7.36 ng·h/mL
- Tmax ([3]; Group I, 10 ± 0.1 mg): 3.67 min
- Cmax ([3]; Group I, 10 ± 0.1 mg): 35.4 ± 5.97 ng/mL
- AUC(0-inf) ([3]; Group II, 15 ± 0.1 mg): 10.4 ng·h/mL
- Tmax ([3]; Group II, 15 ± 0.1 mg): 3.33 min
- Cmax ([3]; Group II, 15 ± 0.1 mg): 51.5 ± 13.8 ng/mL
- AUC(0-inf) ([3]; Group III, 20 ± 0.1 mg): 11.6 ng·h/mL
- Tmax ([3]; Group III, 20 ± 0.1 mg): 2.67 min
- Cmax ([3]; Group III, 20 ± 0.1 mg): 72.4 ± 15.9 ng/mL
- Cmax of Δ^9-THC ([4]; Reference 1): 43.8 ng/mL
- Cmax of Δ^9-THC ([4]; Reference 2): 32.8 ng/mL
- Cmax of Δ^9-THC ([4]; Reference 3): 23.8 ng/mL
